Measured values published in patent publication US20240316078A1, “Treatment of Neuropathic Sensitization Disorders” (IVIEW Therapeutics, Inc., priority 2021, published 2024).
Several values for one entry are separate records, joined by “and”; a condition that tells them apart may be missing. Equal entries are not always repeated.

Legend:
[1] = tested on: patients with DE-associated NOP; assay: Ocular Pain Assessment Survey (OPAS) in pilot study of topical cryosim-3; assay type: in vivo, human; details: C3 2 mg/mL eyelid wipe 4 times/day, mean ± SD, 15 patients; for OPAS Tearing (0-1): baseline 0.36 ± 0.29; for OPAS Redness (0-1): baseline 0.41 ± 0.32; for OPAS Chemical stimuli (0-1): baseline 0.47 ± 0.35; for OPAS Burning sensation (0-1): baseline 0.57 ± 0.37; for OPAS Mechanical stimuli (0-1): baseline 0.63 ± 0.29; for OPAS Sensitivity to light (0-1): baseline 0.76 ± 0.24; for OPAS Aggravating factors (total 0-2): baseline 1.11 ± 0.49; for OPAS Associated factors (total 0-4): baseline 2.09 ± 0.76; for OPAS General activity (walking, etc.) (0-10): baseline 4.00 ± 3.18; for OPAS Sleep (0-10): baseline 4.27 ± 3.81; for OPAS Enjoying life/relations with other people (0-10): baseline 5.07 ± 2.84; for OPAS Mood (0-10): baseline 5.40 ± 2.77; for OPAS Driving and/or watching TV (0-10): baseline 6.80 ± 2.31; for OPAS Non-eye pain (0-20): baseline 7.67 ± 6.22; for OPAS Reading and/or computer use (0-10): baseline 7.79 ± 1.76; for OPAS Eye pain intensity (0-60): baseline 30.60 ± 12.84; for OPAS Quality of life (total 0-60): baseline 33.53 ± 14.24
Experimental: (§1) This prospective non-randomized pilot study was conducted in accordance with the tenets of the Declaration of Helsinki. Ethical approval was obtained from the Chonnam National University Hospital Institutional Review Board (CNUH-2018-274). Informed consent was obtained from all included patients. The sample size was calculated using the G*Power software (version 3.1.9.4; Heinrich-Heine University, Germany) with a level of α=0.05 and a power of 95% to detect a 2-point difference in pain scales. Accordingly, a total sample size of 13 patients was found sufficient.
(§2) Patients with DE accompanied by NOP features, who underwent evaluation between January and December in 2018, were enrolled. DE was diagnosed based on OSDI score ≥13 and tear break-up time (TBUT) ≤7 s. The inclusion criteria were as follows: (1) chronic ocular pain which was unresponsive to conventional topical agents (i.e. lubricants, anti-inflammatories, secretagogues, etc.) for >3 months; (2) discordance between the painful DE symptoms and signs accompanying with specific descriptors, including burning or stinging; and (3) a Wong-Baker FACES Pain Rating Scale (WBFPS) score […].
(§3) The patients were treated with add-on C3 while undergoing conventional topical treatment. C3 samples (2 mg/mL) were diluted in purified water, soaked in gauze, and packaged using automated equipment. The patients applied topical C3 by wiping the gauze on the closed eyelid margin, 4 times/day for 1 month (FIG. 1).
The WBFPS was chosen to screen the pain severity in the patients with DE. The patients chose the face that best depicted the pain they were experiencing. At baseline, 1 week, and 1 month after treatment, the patients also completed the OPAS which is a validated questionnaire for neuropathic pain as previously described. The questions were divided into sections for analysis: questions 4-9, pertained to eye pain intensity (0 to 60); questions 10-11, pertained to non-eye pain (0 to 20); questions 13-19 (0-10, total score 0 to 60), assessed the QoL (reading and/or computer use, driving and/or watching TV, general activity, mood, sleep, and enjoying life/relations with other people); questions 20-21 (each score 0-1, total score 0-2), assessed aggravating factors (mechanical and chemical stimuli); and questions 22-25 (each score 0-1, total score 0-4), assessed associated factors (redness; burning; sensitivity to light; and tearing). The section on symptomatic relief of the OPAS was excluded, and only questions 4-25 were analyzed. The questions were divided into 5 sections as follows: eye pain intensity, non-eye pain, QoL, aggravating factors, and associated factors.
(§4) Statistical analyses were conducted using PASW Statistics for Windows, Version 18.0 (SPSS Inc., Chicago, IL, USA). The normality of distribution was assessed using the Shapiro-Wilk test. The Wilcoxon signed-rank test and repeated-measures analysis of variance with Bonferroni's post-hoc test were used for comparing parameters before and after treatment. A P<0.05 was considered statistically significant.

[2] = tested on: patients with DE-associated NOP; assay: Clinical dry eye parameters (OSDI, TBUT, Schirmer test, corneal staining) in pilot study; assay type: in vivo, human; details: C3 2 mg/mL eyelid wipe 4 times/day, 1-month, mean ± SD
Source text: as §2, §3
The OSDI questionnaire which ranged from 0 to 100 was used to quantify the vision-related QoL. TBUT (tear breakup time), the time interval between the last complete blink and the first appearance of disruption of the tear film, was measured thrice and the mean value was used for analysis. Corneal staining scores were assessed using the area-density index, by multiplying the area and density score. The Schirmer test score represented the length of wetting, and was measured using a calibrated sterile strip placed at the lateral canthus for 5 min under topical anesthesia (0.5% proparacaine). Only the score of the right eye was assessed.
as §4

[3] = tested on: patients with DE-associated NOP; assay: Wong-Baker FACES Pain Rating Scale (WBFPS) in enrolled patients; assay type: in vivo, human; details: individual patients No. 1-15
Source text: as §2
The patients were treated with add-on C3 while undergoing conventional topical treatment. […]
The WBFPS was chosen to screen the pain severity in the patients with DE. […] The questions were divided into sections for analysis: questions 4-9, pertained to eye pain intensity (0 to 60); questions 10-11, pertained to non-eye pain (0 to 20); questions 13-19 (0-10, total score 0 to 60), assessed the QoL (reading and/or computer use, driving and/or watching TV, general activity, mood, sleep, and enjoying life/relations with other people); questions 20-21 (each score 0-1, total score 0-2), assessed aggravating factors (mechanical and chemical stimuli); and questions 22-25 (each score 0-1, total score 0-4), assessed associated factors (redness; burning; sensitivity to light; and tearing). […]

[4] = tested on: patients with DE accompanying NOP features; assay: Pilot study: discontinuation, safety and onset of effect; assay type: in vivo, human
Experimental: as §1, §3
This study enrolled 20 patients with DE accompanying NOP features. Five patients (25.0%) discontinued the treatment because of drug ineffectiveness or intolerance. The remaining 15 patients (75.0%) were included in the analysis. Their mean age was 59.5±13.0 years, and nine patients (60.0%) were women.

patients with mild DE = details: cited from earlier work
[5] = topical C3 in DE, previous study

Which “OPAS Tearing (0-1)” value ([1]; 1-month) does the source give for `CCCCCCCCCP(=O)(C(C)C)C(C)C` [cryosim-3, 1-[Diisopropyl-phosphinoyl]-nonane] here?
The value was 0.21 ± 0.27.

And the “OPAS Redness (0-1)” value ([1]; 1-month)?
The value was 0.39 ± 0.30.

And the “OPAS Chemical stimuli (0-1)” value ([1]; 1-month)?
Its value is 0.41 ± 0.32.

What about the “OPAS Burning sensation (0-1)” value ([1]; 1-month) of the same compound?
The value was 0.29 ± 0.29.

What about the “OPAS Mechanical stimuli (0-1)” value ([1]; 1-month) of the same compound?
The value was 0.47 ± 0.26.

What about the “OPAS Sensitivity to light (0-1)” value ([1]; 1-month) of the same compound?
The value was 0.59 ± 0.28.

What about the “OPAS Aggravating factors (total 0-2)” value ([1]; 1-month) of the same compound?
The value was 0.88 ± 0.57.

And the “OPAS Associated factors (total 0-4)” value ([1]; 1-month)?
The value was 1.58 ± 0.93.

What about the “OPAS General activity (walking, etc.) (0-10)” value ([1]; 1-month) of the same compound?
Its value is 3.20 ± 2.86.

What about the “OPAS Sleep (0-10)” value ([1]; 1-month) of the same compound?
The value was 2.73 ± 3.81.

And the “OPAS Enjoying life/relations with other people (0-10)” value ([1]; 1-month)?
Its value is 4.27 ± 3.03.

What about the “OPAS Mood (0-10)” value ([1]; 1-month) of the same compound?
Its value is 4.40 ± 2.47.

And the “OPAS Driving and/or watching TV (0-10)” value ([1]; 1-month)?
Its value is 5.60 ± 2.90.

And the “OPAS Non-eye pain (0-20)” value ([1]; 1-month)?
The value was 5.47 ± 5.62.

And the “OPAS Reading and/or computer use (0-10)” value ([1]; 1-month)?
Its value is 6.93 ± 2.59.

What about the “OPAS Eye pain intensity (0-60)” value ([1]; 1-month) of the same compound?
Its value is 21.53 ± 10.84.

What about the “OPAS Quality of life (total 0-60)” value ([1]; 1-month) of the same compound?
Its value is 27.17 ± 16.06.

And the “OPAS Tearing (0-1)” value ([1]; 1-week)?
Its value is 0.17 ± 0.18.

And the “OPAS Redness (0-1)” value ([1]; 1-week)?
The value was 0.41 ± 0.30.

What about the “OPAS Chemical stimuli (0-1)” value ([1]; 1-week) of the same compound?
Its value is 0.41 ± 0.35.

What about the “OPAS Burning sensation (0-1)” value ([1]; 1-week) of the same compound?
Its value is 0.40 ± 0.33.

And the “OPAS Mechanical stimuli (0-1)” value ([1]; 1-week)?
The value was 0.47 ± 0.25.

And the “OPAS Sensitivity to light (0-1)” value ([1]; 1-week)?
The value was 0.57 ± 0.26.

What about the “OPAS Aggravating factors (total 0-2)” value ([1]; 1-week) of the same compound?
The value was 0.87 ± 0.56.

And the “OPAS Associated factors (total 0-4)” value ([1]; 1-week)?
Its value is 1.55 ± 0.85.

What about the “OPAS General activity (walking, etc.) (0-10)” value ([1]; 1-week) of the same compound?
The value was 3.27 ± 2.71.

And the “OPAS Sleep (0-10)” value ([1]; 1-week)?
Its value is 2.93 ± 3.67.

What about the “OPAS Enjoying life/relations with other people (0-10)” value ([1]; 1-week) of the same compound?
Its value is 4.33 ± 2.97.

What about the “OPAS Mood (0-10)” value ([1]; 1-week) of the same compound?
Its value is 4.53 ± 2.50.

What about the “OPAS Driving and/or watching TV (0-10)” value ([1]; 1-week) of the same compound?
The value was 5.27 ± 2.52.

And the “OPAS Non-eye pain (0-20)” value ([1]; 1-week)?
Its value is 6.73 ± 6.18.

What about the “OPAS Reading and/or computer use (0-10)” value ([1]; 1-week) of the same compound?
Its value is 7.14 ± 2.48.

And the “OPAS Eye pain intensity (0-60)” value ([1]; 1-week)?
The value was 26.47 ± 11.45.

What about the “OPAS Quality of life (total 0-60)” value ([1]; 1-week) of the same compound?
The value was 27.60 ± 15.49.

What about the Schirmer test score ([2]; 5 min under topical anesthesia, baseline 7.07 ± 2.76) of the same compound?
Its Schirmer test score is 8.47 ± 2.80 mm.

What about the “Corneal staining score (0-9)” value ([2]; baseline 0.60 ± 0.91) of the same compound?
Its value is 0.13 ± 0.35.

What about the Tear break-up time ([2]; baseline 4.13 ± 0.83) of the same compound?
The Tear break-up time was 4.00 ± 0.85 s.

And the “Ocular surface disease index” value ([2]; scale 0 to 100, baseline 57.5 ± 13.8)?
Its value is 40.2 ± 12.6.

What about the WBFPS score ([3]; 1 month of add-on C3 2 mg/mL eyelid wipe 4 times/day) of the same compound?
Its WBFPS score is 2 and 5 (4×) and 6 (2×) and 3 and 4 (3×) and 1 (3×) and 7.

And the WBFPS score ([3]; 1 week of add-on C3 2 mg/mL eyelid wipe 4 times/day)?
The WBFPS score was 1 (4×) and 7 (3×) and 6 (5×) and 3 and 5 (2×).

And the “patients who discontinued the treatment because of drug ineffectiveness or intolerance” value ([4]; five of 20 enrolled patients)?
The value was 25.0%.

And the “time to improvement of ocular pain after C3 treatment” value ([4]; patients unresponsive to conventional treatment (122.7 days))?
Its value is at most 1 week.

And the “safety and effectiveness of topical application to the eyelid in relieving NOP” value ([4]; patients with DE)?
The value was “safe and effective”.

What about the “effect on basal tear secretion” value (patients with mild DE; [5]) of the same compound?
The value was “increasing basal tear secretion”.

What about the “effect on ocular discomfort” value (patients with mild DE; [5]) of the same compound?
Its value is “alleviating ocular discomfort without any complications”.

What about the “duration of painless cooling sensation after wiping” value (patients with mild DE; wiping of C3) of the same compound?
The value was “approximately 40 minutes”.
